Data taken from US20180250306A1, “ALDEHYDE CONJUGATES AND USES THEREOF” (ALDEYRA THERAPEUTICS, INC., priority 2015, published 2018).

How the values were obtained:
IL-1β = assay: Western Blot of IL-1β levels in cardiac fibroblasts; format: cell-based, neonatal rats; conditions: p<0.01
Procedure: (§1) Thirty hearts from neonatal rats were minced and digested (Neonatal Cardiomyocyte Isolation System, LK003303, Worthington). After tissue digestion and cell dissociation, cell suspensions were plated into 35 mm dishes or onto coverslips in wells of 24-well plates. Serum-free DMEM was added to the cell suspensions and the cells allowed to adhere for 2 hrs. After two hours, the cell suspension was removed and the adherent cells were fed with DMEM containing 10% fetal bovine serum (FBS). Cells were maintained in DMEM+10% FBS for 24 hours before treatments. Treatment duration was 24 hours.
(§2) Cell samples were divided in to 2 groups, stimulated with H2O2 or not stimulated with H2O2. […] The cells that were treated with H2O2 contained a final concentration of 0.001% in the wells. Drug was dissolved in 9.5% Captisol®, to a stock concentration of 5 mg/ml. […] Cells were treated for 24 hours then either fixed for immunostaining or collected as lysates for Western Blot analysis.
Whole cell lysates were used for Western blotting; nuclear and cytosolic fractions were not prepared. DMEM from cells plated in 35 mm plates was removed, the cells rinsed quickly in PBS, then incubated in 500 ul cold RIPA buffer for 20-30 minutes at 4° C. under gentle rocking. Following RIPA incubation, cells were scraped from the dish using cell scrapers and frozen at −80° C. overnight to increase cell lysing. […]

cardiac fibroblasts = assay: Fibroblast activation to myofibroblast phenotype, immunostaining for α-SMA and vimentin; format: cell-based, neonatal rats
Procedure: as §1, §2
After 24 hours of treatment, cells on cover slips were rinsed twice with PBS, fixed in 1% paraformaldehyde for 10 minutes then rinsed in PBS for immunostaining. Cells were permeabilized for 18 minutes in 0.1% Triton-X 100 in PBS, then rinsed three times in PBS for 15 minutes each. Following the rinses, cover slips were incubated in Image-IT FX Signal Enhancer (Invitrogen) to reduce background intensities in images. Subsequently, cells were washed three times 15 min with PBS, followed by one hour of blocking in 10% Normal Goat Serum Cells and 0.05% Triton-X 100, and then incubated overnight in 4° C. with primary antibodies diluted in PBS with 2% Normal Goat Serum and 0.05% Triton-X 100. Antibodies were applied at the following concentrations: Alpha-Smooth Muscle Actin 1:200 (V5228, Sigma-Aldrich), Vimentin 1:200 (V6630, Sigma-Aldrich) and NFκB 1:200 (C-20, Santa Cruz Biotech). Following overnight incubation, cover slips were brought to room temperature over 10 minutes and then rinsed in PBS for 15 min. Following 1 hour of incubation in the dark with secondary antibodies (1:100 in PBS, A-21127 and A-21136, Life Technologies), cover slips were rinsed 3 times for 15 min in PBS, incubated in the dark with DAPI (Invitrogen, 1:600) for 10 minutes, and then rinsed for 3 times in PBS. Cover slips were then mounted upside down on glass slides and examined using a Leica SP8 confocal microscope equipped with a 10× air lens. Images were taken as described and split into channels. Each channel was reviewed by eye to determine if NFκB was in the nucleus or in the cytosol.

`CC(C)(O)c1nc2ccc(Cl)cc2cc1N` [NS2, 2-(3-amino-6-chloroquinolin-2-yl)propan-2-ol] was tested, and the “IL-1β levels (Western Blot)” value (IL-1β; H2O2-stimulated cells) was “significant decreases”, the “IL-1β levels (Western Blot)” value (IL-1β; unstimulated cells) was “significant decreases” and the cell morphology (cardiac fibroblasts; 1 mM, cells stimulated with H2O2 or not) was “morphology of a non-activated fibroblast”. The “α-SMA production and morphology change (immunostaining)” value (cardiac fibroblasts; H2O2 stimulated cells, 10 μM, 24 hours) was “little effect”, the “α-SMA production (immunostaining)” value (cardiac fibroblasts; H2O2 stimulated cells, 100 μM, 24 hours) was “clear inhibition” and the “cell shape of activated myofibroblasts” value (cardiac fibroblasts; unstimulated cells, 10 μM) was “does not change”. The “α-SMA production (immunostaining)” value (cardiac fibroblasts; unstimulated cells, 10 μM, 24 hours) was “little effect”, the cell morphology (cardiac fibroblasts; unstimulated cells, 100 μM) was “morphology more like that of a non-activated fibroblast” and the “α-SMA production (immunostaining)” value (cardiac fibroblasts; unstimulated cells, 100 μM, 24 hours) was “inhibited the production of α-SMA”. For the same compound, the “α-SMA production (immunostaining)” value (cardiac fibroblasts; unstimulated cells, 1 mM, 24 hours) was “appeared to limit the production of α-SMA”.
